Experiments:
[1] = tested on: rat primary astrocyte cultures; assay: Slot blot analysis of CSPG protein (CS56) in cytokine-treated primary astrocytes; type: cell-based
Protocol: (§1) Primary astrocyte cultures were prepared from newborn rats at postnatal day 1 (P1) (Wilson and Dixon 1989). The upper portion of the skull was removed and the meninges carefully dissected away to avoid contamination of the culture with fibroblasts. The neocortices were removed, placed into serum-free advanced D-MEM (Dulbecco's Modified Eagle Medium, Invitrogen), homogenized by pipeting and gravity-filtered through 70 μm cell strainer (Falcon). The cells were plated onto 6-well dishes (Falcon). […] Cytokine treatments of primary astrocytes with PDGF, IL-6, TNFα and TGFβ2 (R and D systems) and bFGF2 (Invitrogen) were carried out for 12 hours. RNA was extracted using the Qiagen (Germany) RNA-easy kit following manufacturer's specifications. The transfections of primary astrocytes with SiRNAs and the CMV-SOX9 expression construct were conducted using Lipofectamine 2000 (Invitrogen) according to manufacturer's specifications in 6-well dishes (Falcon). The siRNA ([…]) (SEQ ID No. 4) was used at a concentration of 150 pM. The universal negative control scrambled SiRNA was used according to manufacturer's (Invitrogen) specifications. Transfection efficiencies with a fluorescently-tagged control SiRNA was 35%-40%. The CMV-SOX9 construct has previously been described (Foster et al. 1994; Lefebvre et al. 1997) and plasmid transfection efficiency estimated by cotransfection with a CMV-GFP construct was approximately 10%.
Tissue and cell samples were lysed in RIPA buffer [20 mM, Tris-HCl (pH 7.6), 150 mM NaCl, 0.5% sodium deoxycholate, 1% Triton X-100, 0.1% SDS]. […] Immunoreactive bands were scanned by an imaging densitometer (BioRad GF-700 Imaging Densitometer, Mississauga, ON); and results were quantified using Multi-Analist software (BioRad, Mississauga, ON). […]
To evaluate TGFβ2, PDGF and IL-6 as candidate XT-I, XT-II and C4ST transcriptional regulators, rat primary astrocyte cultures were exposed to 1, 10 or 100 ng/ml of each cytokine. After a 12 hour cytokine exposure, XT-I, XT-II and C4ST mRNA levels were measured relative to untreated cultures by Q-PCR. […]

[2] = tested on: rat primary astrocyte cultures; assay: Cytokine treatment of primary astrocyte cultures, mRNA levels by Q-PCR; type: cell-based; conditions: for XT-II mRNA: 6 week-old primary astrocyte cultures, 1, 10 or 100 ng/ml cytokine, 12 hour exposure, relative to untreated cultures; for SOX9 mRNA levels: primary astrocyte cultures after cytokine treatments; for Fibronectin expression / Laminin expression: primary astrocyte cultures following cytokine treatments
Protocol: as §1
(§2) First strand cDNA was synthesized from 1 μg RNA per condition (cell culture or animal tissue) using the High Capacity cDNA Archive Kit according to the manufacturer protocol (Applied Biosystems Foster City Calif.). The primer probe sets, optical adhesive covers, and PCR plates were purchased from Applied Biosystems (Foster City, Calif.). The probes were labeled with 5′ FAM and with 3′TAMRA as quencher with the exception of the ribosomal probe, which was labeled with 5′ VIC. For Taq Man assays the thermal cycler conditions were 10 minutes at 95° C. followed by 40 cycles of 30 seconds at 95° C. followed by 30 seconds at 60° C. A standard curve of cycle thresholds using cDNA serial dilutions was established and used to calculate abundance of each target mRNA. Technical triplicates and at least biological triplicates were run on all conditions tested. Values were normalized to the amounts of 18S mRNA as determined by Q-PCR. The data were analyzed by a two way ANOVA following by a Bonferroni test with Dunn's correction for multiple comparisons or Dunnet's procedure when comparisons were made with a single variable (control). Student's t-test was used when only two groups were compared.
To evaluate TGFβ2, PDGF and IL-6 as candidate XT-I, XT-II and C4ST transcriptional regulators, rat primary astrocyte cultures were exposed to 1, 10 or 100 ng/ml of each cytokine. After a 12 hour cytokine exposure, XT-I, XT-II and C4ST mRNA levels were measured relative to untreated cultures by Q-PCR. Six week-old cultures were used as, by this time point, the astrocytes are quiescent (as evidenced by reduced GFAP expression) and baseline levels of XT-I, XT-II and C4ST genes are low.
To test whether SOX9 regulates expression of XT-I, XT-II and C4ST in vitro, primary astrocytes were transfected with a SOX9 expression construct and assessed for CBG mRNA levels by Q-PCR 48 hours later. […] The levels of fibronectin and laminin mRNA in these same cultures were unaffected by SOX9 over-expression. To determine whether IL-6, PDGF and TGF[…]2 might increase XT-I, XT-II and C4ST gene expression by up-regulating SOX9 expression, the expression levels of SOX9 mRNA were assayed after these cytokine treatments in primary astrocyte cultures.

[3] = tested on: SOX9; assay: SOX9 knock-down by anti-SOX9 siRNA transfection of primary astrocytes, mRNA levels by Q-PCR; type: cell-based, rat
Protocol: as §1, §2
To test the effect of SOX9 knock-down on the expression of XT-I, XT-II and C4ST, a control (scrambled) small interfering RNA (SiRNA) or an anti-SOX9 SiRNA was transfected into primary astrocytes and mRNA levels of SOX9, XT-I, XT-II and C4ST were assayed by Q-PCR 12 hours later. […] (FIG. 7 E, F).

[4] = tested on: SOX9; assay: SOX9 luciferase reporter construct assay in primary astrocytes; type: cell-based, rat
From the text: Astrocytes, such as wither primary astrocytes (rodent or human) or an established astrocyte cell line designated as Neu7 (Fok-Seang, Smith-Thomas et al. 1995), were transfected with a SOX9 reporter construct under standard conditions. The SOX9 reporter construct (a gift from Dr. Michael Underhill, University of British Columbia) has 4 repeats of the SOX9 binding site coupled to the mouse Col2a1 minimal promoter (−89 to +6) cloned upstream of a luciferase gene in the plasmid pGL4 (Promega) (Weston, Chandraratna et al. 2002). Changes in luciferase levels in transfected cultures is used as a read-out of SOX9 activity. The anti-SOX9 SiRNA previously used (or astrocytes from the SOX9 conditional knock out) is used as a positive control and the scrambled siRNA is used as a negative control for this screen. The screen is used to identify compounds that reduce the levels of luciferase activity relative to control wells. […]
Specifically, primary astrocytes obtained from newborn rats were cultured in 6-well dishes for 6 weeks in Advanced-DMEM with 10% FBS. […] Transfection efficiency was calculated by co-transfection with a control plasmid. […] Twenty-four hours after the TGF-β2 application the cells were lysed and luciferase activity was measured using the Luciferase Assay System (PROMEGA) (according to the manufacturer's protocol) and a luminometer.

[5] = SOX9 knock-down in primary astrocytes
[6] = TGFβ2-treated primary astrocytes
[7] = primary astrocytes, 12 hours after transfection, siRNA 150 pM
[8] = TGFβ2 treatment alone, primary astrocytes

Substance	CSPG protein expression [1]	XT-II mRNA [2]	SOX9 mRNA levels [2]	Fibronectin expression [2]	Laminin expression [2]	other results
PDGF	increased expression	strong, concentration-dependent up-regulation	significant increase	similarly increased	similarly increased	
bFGF: cytokine (Invitrogen) used to treat primary astrocytes		no effect				
IL-6: cytokine (R and D systems) used to treat primary astrocytes	increased expression	strong, concentration-dependent up-regulation	significant increase	similarly increased	similarly increased	
AAAGUUGUCGCUCCCACUGAAGUUU (listed as RNA, chemistry not given here) [anti-SOX9 siRNA, small interfering RNA against SOX9, used at 150 pM in primary astrocytes]						fibronectin gene expression [3, 5]: did not decrease; laminin gene expression [3, 5]: did not decrease; reduction in SOX9 mRNA levels [3, 6]: 87±13%; reduction in XT-I mRNA [3, 6]: 68±6.4%; reduction in SOX9 mRNA levels [3, 7]: 75±12%; reduction in XT-I mRNA [3, 7]: 71±5.5%
TGFβ2: cytokine (R and D systems) used to treat primary astrocytes	increased expression	strong, concentration-dependent up-regulation	significant increase	similarly increased	similarly increased	SOX9 mRNA levels [3, 8]: increased; XT-1 mRNA levels [3, 8]: increased; luciferase activity ([4]; SOX9 luciferase reporter construct following treatment (FIG. 10)): increased; increase in luciferase activity ([4]; TGF-β2 final concentration 10 nM, 24 hours, primary astrocytes from newborn rats cultured 6 weeks): ~2 fold
